Assays:
[1] = Phase II clinical trial, tumor responses; format: in vivo, human patients; settings: 150 mg/m^2 biweekly
Excerpt: To date, the first six patients have received at least one cycle of treatments. […] Specifically, three patients enrolled in the study had measurable disease.

LX-1 lung tumor = assay: Antitumor activity against LX-1 lung tumor in nude mice (Example 10, combinations); format: in vivo, human tumor xenograft in nude mice; settings: for Avg Tumor Diameter: 4 treatments, mg/kg: EDX 40, PDX 60, TXL 25, TXT 20, PDX+TXL 45+18, PDX+TXT 45+15, 'then' = taxane 24 h later; for Change in Tumor Volume: from starting point of 83 mg, 3 to 4 days after treatment end
[2] = system: human MX-1 mammary carcinoma; assay: Antitumor activity against xenografts of human MX-1 mammary carcinoma in nude mice; settings: same doses, no measurable tumor at day 14, mice/mice tested
human LX-1 lung cancer = assay: Antitumor activity against xenografts of human LX-1 lung cancer in nude mice (Example 3); format: in vivo, human tumor xenograft in nude mice; settings: Example 2 protocol, tumor free three weeks after therapy
TSU-PR1 (human prostate) = assay: Antitumor activity in TSU-PR1 tumor model in mice (Example 11)
Excerpt: (§1) The tumor volume at the time of initial treatment was 14-19 mm^3.

PC-3 (human prostate) = assay: Antitumor activity in PC-3 tumor model in mice (Example 11); settings: PC3, dose PDX 60, TXL 25, PDX + TXL 45 + 16
Excerpt: as §1

LX-1 (human lung) = assay: Antitumor activity in LX-1 tumor model in mice (Example 11)
Excerpt: as §1

[3] = dose PDX 60, TXL 25, PDX + TXL 45 + 16
[4] = dose PDX 60, TXL 25, PDX + TXL 45 + 16, initial volume 14-19 mm^3

Question: Which results are given for `C#CCC(Cc1cnc2nc(N)nc(N)c2n1)c1ccc(C(=O)N[C@@H](CCC(=O)O)C(=O)O)cc1` (stereo partly drawn) [10-propargyl-10-deazaaminopterin]?
Answer: response of fourth patient (evaluable disease) [1]: objective improvement in disease parameters; patients with major responses ([1]; of first six patients): four have demonstrated major responses; reduction in tumor diameter (lung scans) ([1]; three patients with measurable disease): at least 50%

Question: With `CCC(Cc1cnc2nc(N)nc(N)c2n1)c1ccc(C(=O)N[C@@H](CCC(=O)O)C(=O)O)cc1` (stereo partly drawn) [EDX, edatrexate] as the compound, how does the “Avg Tumor Diameter” value (LX-1 lung tumor) read?
Answer: 6.6 ± 2 mm

Question: What about the “Change in Tumor Volume” value (LX-1 lung tumor; same doses) of the same compound?
Answer: +102 mg

Question: And the “Tumor Free Mice at 3-4 days” value (LX-1 lung tumor; same doses, mice/mice treated)?
Answer: 0/10

Question: What does the source list for `CN(Cc1cnc2nc(N)nc(N)c2n1)c1ccc(C(=O)N[C@@H](CCC(=O)O)C(=O)O)cc1` [MTX, methotrexate, reference compound]?
Answer: Complete Regressions [2]: no regressions; Cures (human LX-1 lung cancer): 0/10

Question: Which results are given for `CC(=O)O[C@H]1C(=O)[C@@]2(C)[C@H]([C@H](OC(=O)c3ccccc3)[C@]3(O)C[C@H](OC(=O)[C@H](O)[C@@H](NC(=O)c4ccccc4)c4ccccc4)C(C)=C1C3(C)C)[C@]1(OC(C)=O)CO[C@@H]1C[C@@H]2O` [TXL, paclitaxel, reference compound]?
Answer: Avg Tumor Diameter (TSU-PR1 (human prostate); [3]): 3.2 ± 0.3 mm; Tumor Free Mice (TSU-PR1 (human prostate); [3]): 0/6; Change in Tumor Volume (TSU-PR1 (human prostate); [4]): 0; Avg Tumor Diameter (PC-3 (human prostate)): 4.3 ± 0.3 mm; Tumor Free Mice (PC-3 (human prostate)): 0/6; Change in Tumor Volume (PC-3 (human prostate); initial volume 14-19 mm^3): +26; Avg Tumor Diameter (LX-1 (human lung); [3]): 11.6 ± 1 mm; Tumor Free Mice (LX-1 (human lung); [3]): 0/6; Change in Tumor Volume (LX-1 (human lung); [4]): +803; Avg Tumor Diameter (LX-1 lung tumor): 6.2 ± 2 mm; Change in Tumor Volume (LX-1 lung tumor; same doses): +42 mg; Tumor Free Mice at 3-4 days (LX-1 lung tumor; same doses, mice/mice treated): 0/10

Question: With `CC(=O)O[C@@]12CO[C@@H]1C[C@H](O)[C@@]1(C)C(=O)[C@H](O)C3=C(C)[C@@H](OC(=O)[C@H](O)[C@@H](NC(=O)OC(C)(C)C)c4ccccc4)C[C@@](O)([C@@H](OC(=O)c4ccccc4)[C@H]21)C3(C)C` [TXT, docetaxel] as the compound, how does the “Avg Tumor Diameter” value (LX-1 lung tumor) read?
Answer: 6.0 ± 2 mm

Question: And the “Change in Tumor Volume” value (LX-1 lung tumor; same doses)?
Answer: +34 mg

Question: And the “Tumor Free Mice at 3-4 days” value (LX-1 lung tumor; same doses, mice/mice treated)?
Answer: 1/10

Question: What about the “Tumor Free Mice at 28 days” value (LX-1 lung tumor; same doses, mice/mice treated) of the same compound?
Answer: 0/10
